Experimental data as given in patent US7491489B2 (priority 2004, dated 2009).
In brackets after ≈: the same amount, converted by molar mass.

What was measured:
SARS-CoV GZ50 strain [1] = test system: SARS-CoV GZ50 strain
SARS-CoV GZ50 strain [2] = assay type: cell-based

Structure (SMILES)	IC90 (peptide concentration that reduced the viral titer by 90% relative to untreated control) (SARS-CoV GZ50 strain [1])	Intracellular viral RNA levels (SARS-CoV GZ50 strain [2])	Released viral titer relative to untreated control (SARS-CoV GZ50 strain [1])	Cytotoxic effects on peptide-treated cells (FRhK-4 cells)
CC[C@H](C)[C@H](NC(=O)CNC(=O)[C@H](CC(C)C)NC(=O)[C@@H]1CCCN1C(=O)[C@H](CC(C)C)NC(=O)[C@H](CCCCN)NC(=O)[C@@H](N)Cc1ccccc1)C(=O)N[C@@H](CC(N)=O)C(=O)N[C@H](C(=O)N[C@H](C(=O)N[C@@H](CC(N)=O)C(=O)N[C@@H](Cc1ccccc1)C(=O)N[C@@H](CCCNC(=N)N)C(=O)N[C@@H](C)C(=O)N[C@H](C(=O)N[C@@H](CC(C)C)C(=O)N[C@H](C(=O)N[C@@H](C)C(=O)N[C@@H](Cc1ccccc1)C(=O)N[C@@H](CO)C(=O)O)[C@@H](C)O)[C@@H](C)CC)[C@@H](C)O)[C@@H](C)CC [P1]	>500 µg/mL	–	–	–
CC[C@H](C)[C@H](NC(=O)[C@@H](NC(=O)CNC(=O)[C@H](CC(N)=O)NC(=O)[C@H](CCC(=O)O)NC(=O)[C@H](CC(=O)O)NC(=O)[C@H](Cc1ccc(O)cc1)NC(=O)[C@H](CCCCN)NC(=O)[C@H](CC(C)C)NC(=O)[C@H](CCSC)NC(=O)[C@H](Cc1ccccc1)NC(=O)[C@@H](NC(=O)[C@@H](NC(=O)[C@@H]1CCCN1)[C@@H](C)O)[C@@H](C)O)[C@@H](C)O)C(=O)N[C@H](C(=O)N[C@@H](CC(=O)O)C(=O)N[C@@H](C)C(=O)N[C@H](C(=O)N[C@@H](CC(=O)O)C(=O)N[C@@H](CS)C(=O)O)C(C)C)[C@@H](C)O [P2]	112.5 ± 26.3 µg/mL (≈ 50.3 µM)	reduced	18 % of the control	–
CC(C)C[C@H](NC(=O)[C@@H](N)C(C)C)C(=O)N[C@@H](Cc1ccc(O)cc1)C(=O)N[C@@H](CC(N)=O)C(=O)N[C@@H](CO)C(=O)N[C@H](C(=O)N[C@@H](Cc1ccccc1)C(=O)N[C@@H](Cc1ccccc1)C(=O)N[C@@H](CO)C(=O)N[C@H](C(=O)N[C@@H](Cc1ccccc1)C(=O)N[C@@H](CCCCN)C(=O)N[C@@H](CS)C(=O)N[C@@H](Cc1ccc(O)cc1)C(=O)NCC(=O)N[C@H](C(=O)N[C@@H](CO)C(=O)N[C@@H](C)C(=O)N[C@H](C(=O)N[C@@H](CCCCN)C(=O)O)[C@@H](C)O)C(C)C)[C@@H](C)O)[C@@H](C)O [P3]	>500 µg/mL	–	–	–
CC[C@H](C)[C@H](NC(=O)CNC(=O)[C@H](CO)NC(=O)[C@@H](NC(=O)[C@@H](NC(=O)[C@H](Cc1ccc(O)cc1)NC(=O)[C@H](Cc1ccccc1)NC(=O)CNC(=O)[C@H](Cc1ccc(O)cc1)NC(=O)[C@H](CC(=O)O)NC(=O)[C@H](CC(N)=O)NC(=O)[C@H](CC(C)C)NC(=O)[C@@H]1CCCN1C(=O)[C@H](Cc1c[nH]c2ccccc12)NC(=O)[C@H](Cc1ccc(O)cc1)NC(=O)[C@H](CS)NC(=O)[C@H](CC(N)=O)NC(=O)[C@H](CC(C)C)NC(=O)[C@H](C)NC(=O)[C@@H]1CCCN1)[C@@H](C)O)[C@@H](C)O)C(=O)O [P4]	>500 µg/mL	–	–	–
CC[C@H](C)[C@H](NC(=O)[C@H](CCC(=O)O)NC(=O)[C@H](CO)NC(=O)[C@@H](NC(=O)[C@H](CCCCN)NC(=O)[C@@H]1CCCN1C(=O)[C@H](CC(=O)O)NC(=O)[C@H](CCCNC(=N)N)NC(=O)[C@@H](NC(=O)[C@H](CO)NC(=O)[C@H](CC(=O)O)NC(=O)[C@@H](NC(=O)[C@H](Cc1ccccc1)NC(=O)[C@H](CC(=O)O)NC(=O)[C@H](CO)NC(=O)[C@@H](NC(=O)[C@H](CC(=O)O)NC(=O)[C@@H](N)CCCNC(=N)N)C(C)C)[C@@H](C)O)C(C)C)[C@@H](C)O)C(=O)N[C@@H](CC(C)C)C(=O)N[C@@H](CC(=O)O)C(=O)O [P5]	>500 µg/mL	–	–	–
CC[C@H](C)[C@H](NC(=O)[C@H](C)NC(=O)[C@@H](NC(=O)[C@H](CO)NC(=O)[C@@H](NC(=O)[C@H](CC(=O)O)NC(=O)[C@@H](NC(=O)[C@H](CS)NC(=O)[C@H](CC(N)=O)NC(=O)[C@@H](NC(=O)[C@H](CC(=O)O)NC(=O)[C@H](CCC(N)=O)NC(=O)[C@@H](N)Cc1ccc(O)cc1)C(C)C)[C@@H](C)O)C(C)C)[C@@H](C)O)C(=O)N[C@@H](Cc1c[nH]cn1)C(=O)N[C@@H](C)C(=O)N[C@@H](CC(=O)O)C(=O)N[C@@H](CCC(N)=O)C(=O)N[C@@H](CC(C)C)C(=O)N[C@H](C(=O)N1CCC[C@H]1C(=O)O)[C@@H](C)O [P6]	113.0 µg/mL (≈ 51.6 µM)	reduced	18 % of the control	–
CC[C@H](C)[C@H](NC(=O)[C@H](CO)NC(=O)[C@H](Cc1ccccc1)NC(=O)[C@H](CC(N)=O)NC(=O)[C@@H](NC(=O)[C@@H]1CCCN1C(=O)[C@@H](NC(=O)[C@H](C)NC(=O)[C@@H](NC(=O)[C@@H](NC(=O)[C@H](CC(N)=O)NC(=O)[C@H](CC(N)=O)NC(=O)[C@@H](N)CO)[C@@H](C)O)[C@@H](C)CC)[C@@H](C)CC)[C@@H](C)O)C(=O)N[C@@H](CO)C(=O)N[C@H](C(=O)N[C@H](C(=O)N[C@H](C(=O)N[C@@H](CCC(=O)O)C(=O)N[C@H](C(=O)N[C@@H](CCSC)C(=O)O)C(C)C)[C@@H](C)O)[C@@H](C)O)[C@@H](C)CC [P7]	>500 µg/mL	–	–	–
CC[C@H](C)[C@H](NC(=O)CNC(=O)[C@H](CO)NC(=O)[C@H](CC(C)C)NC(=O)[C@H](C)NC(=O)[C@H](CCCNC(=N)N)NC(=O)[C@H](CC(N)=O)NC(=O)[C@H](CC(C)C)NC(=O)[C@H](CCC(N)=O)NC(=O)[C@@H](NC(=O)[C@H](CS)NC(=O)[C@H](Cc1ccccc1)NC(=O)[C@H](CO)NC(=O)CNC(=O)[C@H](Cc1ccc(O)cc1)NC(=O)[C@@H](N)CCC(N)=O)[C@@H](C)O)C(=O)N[C@@H](C)C(=O)N[C@@H](C)C(=O)N[C@@H](CCC(=O)O)C(=O)N[C@@H](CCC(N)=O)C(=O)O [P8]	24.9 µg/mL (≈ 11.5 µM)	–	–	None of the 10 peptide-treated cells exhibited cytotoxic effects
CC[C@H](C)[C@H](NC(=O)CN)C(=O)NCC(=O)N[C@H](C(=O)N[C@H](C(=O)N[C@@H](CCC(N)=O)C(=O)N[C@@H](CC(N)=O)C(=O)N[C@H](C(=O)N[C@@H](CC(C)C)C(=O)N[C@@H](Cc1ccc(O)cc1)C(=O)N[C@@H](CCC(=O)O)C(=O)N[C@@H](CC(N)=O)C(=O)N[C@@H](CCC(N)=O)C(=O)N[C@@H](CCCCN)C(=O)N[C@@H](CCC(N)=O)C(=O)N[C@H](C(=O)N[C@@H](C)C(=O)N[C@@H](CC(N)=O)C(=O)N[C@@H](CCC(N)=O)C(=O)N[C@@H](Cc1ccccc1)C(=O)O)[C@@H](C)CC)C(C)C)[C@@H](C)O)C(C)C [P9]	>500 µg/mL	–	–	–
